Assays:
[1] = molecular target: Recombinant wild type LRRK2 protein (Homo sapiens (Human), UniProt Q5S007); test: LRRK2 kinase activity, LanthaScreen TR-FRET assay (wild type); assay type: biochemical; conditions: LRRKtide 400 nM, 25 μM ATP, 60 min; read-out: LRRK2 WT IC50
In short: (§1)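 Recombinant human wild-type or G2019S LRRK2 phosphorylated fluorescein-labelled LRRKtide (ERM-based) with ATP and serially diluted compound for 60 min at room temperature.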

[2] = molecular target: Recombinant G2019S-LRRK2 protein (Homo sapiens (Human), UniProt Q5S007, G2019S); test: LRRK2 kinase activity, LanthaScreen TR-FRET assay (G2019S); assay type: biochemical; conditions: LRRKtide 400 nM, 25 μM ATP, 60 min
In short: as §1

Sequence of Recombinant wild type LRRK2 protein (Q5S007 whole entry): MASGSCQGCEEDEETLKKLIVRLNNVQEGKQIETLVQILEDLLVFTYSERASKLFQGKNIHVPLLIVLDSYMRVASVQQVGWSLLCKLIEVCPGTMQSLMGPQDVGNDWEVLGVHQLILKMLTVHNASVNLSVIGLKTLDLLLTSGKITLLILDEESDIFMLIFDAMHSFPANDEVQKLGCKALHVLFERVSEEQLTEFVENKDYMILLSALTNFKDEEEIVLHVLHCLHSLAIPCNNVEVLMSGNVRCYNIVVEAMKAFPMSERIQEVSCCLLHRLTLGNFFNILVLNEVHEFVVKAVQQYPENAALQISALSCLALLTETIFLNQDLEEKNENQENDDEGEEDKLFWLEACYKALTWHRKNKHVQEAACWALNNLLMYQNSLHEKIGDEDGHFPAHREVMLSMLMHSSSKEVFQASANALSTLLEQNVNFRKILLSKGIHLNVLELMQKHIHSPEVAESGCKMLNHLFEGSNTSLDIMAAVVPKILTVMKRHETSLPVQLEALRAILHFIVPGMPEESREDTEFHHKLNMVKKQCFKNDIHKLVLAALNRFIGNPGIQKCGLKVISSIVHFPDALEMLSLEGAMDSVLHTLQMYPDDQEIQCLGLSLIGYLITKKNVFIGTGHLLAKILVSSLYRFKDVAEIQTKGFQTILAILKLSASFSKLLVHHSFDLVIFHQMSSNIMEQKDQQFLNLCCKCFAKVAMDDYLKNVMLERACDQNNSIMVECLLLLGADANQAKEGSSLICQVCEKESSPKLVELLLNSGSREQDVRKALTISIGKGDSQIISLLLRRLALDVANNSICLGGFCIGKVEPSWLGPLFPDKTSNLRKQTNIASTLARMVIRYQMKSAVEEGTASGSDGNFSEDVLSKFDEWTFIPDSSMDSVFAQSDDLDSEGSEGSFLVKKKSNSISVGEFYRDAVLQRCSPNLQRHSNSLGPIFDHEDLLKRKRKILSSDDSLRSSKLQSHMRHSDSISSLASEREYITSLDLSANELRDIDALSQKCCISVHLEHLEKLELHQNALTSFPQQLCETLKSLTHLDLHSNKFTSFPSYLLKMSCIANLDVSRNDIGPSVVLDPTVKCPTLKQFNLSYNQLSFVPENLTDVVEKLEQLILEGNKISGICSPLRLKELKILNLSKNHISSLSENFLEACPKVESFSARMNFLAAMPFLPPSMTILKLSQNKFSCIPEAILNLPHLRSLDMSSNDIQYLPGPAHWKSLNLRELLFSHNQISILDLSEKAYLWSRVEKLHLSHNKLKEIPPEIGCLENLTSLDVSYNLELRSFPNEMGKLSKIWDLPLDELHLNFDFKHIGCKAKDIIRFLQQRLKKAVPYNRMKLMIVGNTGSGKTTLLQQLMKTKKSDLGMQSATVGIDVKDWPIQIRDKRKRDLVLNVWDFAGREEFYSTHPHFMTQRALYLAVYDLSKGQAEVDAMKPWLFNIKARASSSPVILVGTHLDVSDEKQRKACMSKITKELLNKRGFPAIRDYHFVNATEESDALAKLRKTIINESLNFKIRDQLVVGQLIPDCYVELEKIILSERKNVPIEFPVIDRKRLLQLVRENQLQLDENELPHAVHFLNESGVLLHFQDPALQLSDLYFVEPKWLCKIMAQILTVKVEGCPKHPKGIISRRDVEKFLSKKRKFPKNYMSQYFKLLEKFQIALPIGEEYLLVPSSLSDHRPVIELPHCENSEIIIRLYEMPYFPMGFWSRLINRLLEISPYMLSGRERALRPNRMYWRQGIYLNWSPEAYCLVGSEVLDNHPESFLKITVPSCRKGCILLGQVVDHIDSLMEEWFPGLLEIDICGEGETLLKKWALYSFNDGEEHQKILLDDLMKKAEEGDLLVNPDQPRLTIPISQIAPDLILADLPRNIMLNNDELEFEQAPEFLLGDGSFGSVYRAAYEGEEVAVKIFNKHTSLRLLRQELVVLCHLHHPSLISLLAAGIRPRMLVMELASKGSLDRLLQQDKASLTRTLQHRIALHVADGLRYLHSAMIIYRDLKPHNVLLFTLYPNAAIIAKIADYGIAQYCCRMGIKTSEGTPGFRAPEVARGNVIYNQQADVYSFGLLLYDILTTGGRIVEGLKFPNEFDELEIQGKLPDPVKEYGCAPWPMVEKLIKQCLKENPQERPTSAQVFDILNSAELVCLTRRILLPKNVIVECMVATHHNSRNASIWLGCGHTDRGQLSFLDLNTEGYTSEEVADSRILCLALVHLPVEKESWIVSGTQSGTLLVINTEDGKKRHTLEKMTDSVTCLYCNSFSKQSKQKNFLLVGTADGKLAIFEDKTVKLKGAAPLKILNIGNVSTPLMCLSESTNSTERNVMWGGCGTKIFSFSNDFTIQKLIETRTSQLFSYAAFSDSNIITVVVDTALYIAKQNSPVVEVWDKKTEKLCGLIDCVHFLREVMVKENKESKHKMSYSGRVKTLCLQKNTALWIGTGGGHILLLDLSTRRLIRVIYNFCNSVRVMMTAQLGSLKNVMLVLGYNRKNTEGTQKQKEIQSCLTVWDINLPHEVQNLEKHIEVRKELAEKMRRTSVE
Sequence of Recombinant G2019S-LRRK2 protein (Q5S007 whole entry G2019S): as the sequence (Q5S007 whole entry) above, with G2019S counted along it

Row | Compound | IC50 [1] | IC50 [2]
1 | Cc1c(C#N)noc1C(=O)Nc1ccc2[nH]nc(-c3ccoc3)c2c1 [Example 180, 3-Cyano-N-(3-(furan-3-yl)-1H-indazol-5-yl)-4-methylisoxazole-5-carboxamide] | 100 to 1000 nM | 100 to 1000 nM
2 | Cc1c(C#N)cnc(C(=O)Nc2ccc3[nH]nc(-c4cnc(C(C)C)o4)c3c2)c1C [Example 181, 5-Cyano-N-(3-(2-isopropyloxazol-5-yl)-1H-indazol-5-yl)-3,4-dimethylpicolinamide] | < 100 nM | < 100 nM
3 | Cc1cccc(-c2n[nH]c3ccc(NC(=O)c4ncc(C#N)c(C)c4C)cc23)n1 [Example 182, 5-Cyano-3,4-dimethyl-N-(3-(6-methylpyridin-2-yl)-1H-indazol-5-yl)picolinamide] | 100 to 1000 nM | < 100 nM
4 | Cc1c(C#N)cnc(C(=O)Nc2ccc3[nH]nc(-c4cn[nH]c4)c3c2)c1C [Example 183, N-(3-(1H-Pyrazol-4-yl)-1H-indazol-5-yl)-5-cyano-3,4-dimethylpicolinamide] | < 100 nM | < 100 nM
5 | Cc1c(C(=O)Nc2ccc3[nH]nc(-c4cnco4)c3c2)nc(Cl)c(C#N)c1C [Example 184, 6-Chloro-5-cyano-3,4-dimethyl-N-(3-(oxazol-5-yl)-1H-indazol-5-yl)picolinamide] | < 100 nM | < 100 nM
6 | Cc1nc(C(=O)Nc2ccc3[nH]nc(-c4cnn(C(F)F)c4)c3c2)c(C)c(C)c1C#N [Example 185, 5-Cyano-N-(3-(1-(difluoromethyl)-1H-pyrazol-4-yl)-1H-indazol-5-yl)-3,4,6-trimethylpicolinamide] | < 100 nM | < 100 nM
7 | Cc1c(C#N)cnc(C(=O)Nc2ccc3[nH]nc(-c4ccn(C)c4)c3c2)c1C [Example 186, 5-cyano-3,4-dimethyl-N-(3-(1-methyl-1H-pyrrol-3-yl)-1H-indazol-5-yl)picolinamide] | < 100 nM | < 100 nM
8 | Cc1c(C#N)cnc(C(=O)Nc2ccc3[nH]nc(-c4cnn(C)c4)c3c2)c1C [Example 187, 5-Cyano-3,4-dimethyl-N-(3-(1-methyl-1H-pyrazol-4-yl)-1H-indazol-5-yl)picolinamide] | < 100 nM | < 100 nM
9 | N#Cc1ccc(F)c(C(=O)Nc2ccc3[nH]nc(-c4cnco4)c3c2)c1F [Example 188, 3-Cyano-2,6-difluoro-N-(3-(oxazol-5-yl)-1H-indazol-5-yl)benzamide] | < 100 nM | < 100 nM
10 | COc1cc(C#N)ccc1C(=O)Nc1ccc2[nH]nc(-c3cnn(C(F)F)c3)c2c1 [Example 189, 4-Cyano-N-(3-(1-(difluoromethyl)-1H-pyrazol-4-yl)-1H-indazol-5-yl)-2-methoxybenzamide] | < 100 nM | < 100 nM
11 | Cc1cc(C#N)cc(F)c1C(=O)Nc1ccc2[nH]nc(-c3cnco3)c2c1 [Example 190, 4-Cyano-2-fluoro-6-methyl-N-(3-(oxazol-5-yl)-1H-indazol-5-yl)benzamide] | < 100 nM | < 100 nM
12 | Cc1cc(-c2n[nH]c3ccc(NC(=O)c4ncc(C#N)c(C)c4C)cc23)cc(C)n1 [Example 191, 5-Cyano-N-(3-(2,6-dimethylpyridin-4-yl)-1H-indazol-5-yl)-3,4-dimethylpicolinamide] | < 100 nM | < 100 nM
13 | N#Cc1cccc(C(=O)Nc2ccc3[nH]nc(-c4cnn(C(F)F)c4)c3c2)c1C(F)(F)F [Example 192, 3-Cyano-N-(3-(1-(difluoromethyl)-1H-pyrazol-4-yl)-1H-indazol-5-yl)-2-(trifluoromethyl)benzamide] | < 100 nM | < 100 nM
14 | Cc1ccc(C#N)c(C)c1C(=O)Nc1ccc2[nH]nc(-c3cnn(C(F)F)c3)c2c1 [Example 193, 3-Cyano-N-(3-(1-(difluoromethyl)-1H-pyrazol-4-yl)-1H-indazol-5-yl)-2,6-dimethylbenzamide] | < 100 nM | < 100 nM
15 | COc1cc(-c2n[nH]c3ccc(NC(=O)c4c(C)c(C#N)nn4C)cc23)ccn1 [Example 194, 3-Cyano-N-(3-(2-methoxypyridin-4-yl)-1H-indazol-5-yl)-1,4-dimethyl-1H-pyrazole-5-carboxamide] | 100 to 1000 nM | < 100 nM
16 | Cc1c(C#N)nn(C)c1C(=O)Nc1ccc2[nH]nc(-c3cnn(C(F)F)c3)c2c1 [Example 195, 3-Cyano-N-(3-(1-(difluoromethyl)-1H-pyrazol-4-yl)-1H-indazol-5-yl)-1,4-dimethyl-1H-pyrazole-5-carboxamide] | < 100 nM | < 100 nM
17 | Cc1c(C#N)nn(C)c1C(=O)Nc1ccc2[nH]nc(-c3cnoc3)c2c1 [Example 196, 3-Cyano-N-(3-(isoxazol-4-yl)-1H-indazol-5-yl)-1,4-dimethyl-1H-pyrazole-5-carboxamide] | 100 to 1000 nM | < 100 nM
18 | Cc1coc(-c2n[nH]c3ccc(NC(=O)c4ncc(C#N)c(C)c4C)cc23)n1 [Example 197, 5-Cyano-3,4-dimethyl-N-(3-(4-methyloxazol-2-yl)-1H-indazol-5-yl)picolinamide] | 100 to 1000 nM | < 100 nM

Row | Compound | IC50 [1] | IC50 [2]
19 | Cc1c(C#N)cnc(C(=O)Nc2ccc3[nH]nc(-c4ncco4)c3c2)c1C [Example 198, 5-Cyano-3,4-dimethyl-N-(3-(oxazol-2-yl)-1H-indazol-5-yl)picolinamide] | 100 to 1000 nM | < 100 nM
20 | N#Cc1cccc(C(=O)Nc2ccc3[nH]nc(-c4cnco4)c3c2)c1F [Example 199, 3-Cyano-2-fluoro-N-(3-(oxazol-5-yl)-1H-indazol-5-yl)benzamide] | < 100 nM | < 100 nM
21 | COc1cc(C#N)ccc1C(=O)Nc1ccc2[nH]nc(-c3cnco3)c2c1 [Example 200, 4-Cyano-2-methoxy-N-(3-(oxazol-5-yl)-1H-indazol-5-yl)benzamide] | < 100 nM | < 100 nM
22 | COc1cc(C#N)cc(C)c1C(=O)Nc1ccc2[nH]nc(-c3cnn(C(F)F)c3)c2c1 [Example 201, 4-Cyano-N-(3-(1-(difluoromethyl)-1H-pyrazol-4-yl)-1H-indazol-5-yl)-2-methoxy-6-methylbenzamide] | < 100 nM | < 100 nM
23 | Cc1nc(C(=O)Nc2ccc3[nH]nc(-c4cnco4)c3c2)c(C)c(C)c1C#N [Example 202, 5-Cyano-3,4,6-trimethyl-N-(3-(oxazol-5-yl)-1H-indazol-5-yl)picolinamide] | < 100 nM | < 100 nM
24 | Cc1ccc(C#N)c(F)c1C(=O)Nc1ccc2[nH]nc(-c3cnco3)c2c1 [Example 203, 3-Cyano-2-fluoro-6-methyl-N-(3-(oxazol-5-yl)-1H-indazol-5-yl)benzamide] | < 100 nM | < 100 nM
25 | Cc1c(C#N)cnc(C(=O)Nc2ccc3[nH]nc(-c4ccn(C(F)F)n4)c3c2)c1C [Example 204, 5-Cyano-N-(3-(1-(difluoromethyl)-1H-pyrazol-3-yl)-1H-indazol-5-yl)-3,4-dimethylpicolinamide] | 100 to 1000 nM | < 100 nM
26 | CCOc1cc(-c2n[nH]c3ccc(NC(=O)c4ncc(C#N)c(C)c4C)cc23)ccn1 [Example 205, 5-Cyano-N-(3-(2-ethoxypyridin-4-yl)-1H-indazol-5-yl)-3,4-dimethylpicolinamide] | < 100 nM | < 100 nM
27 | N#Cc1cnc(C(=O)Nc2ccc3[nH]nc(-c4cnco4)c3c2)c2c1CCC2 [Example 206, 4-Cyano-N-(3-(oxazol-5-yl)-1H-indazol-5-yl)-6,7-dihydro-5H-cyclopenta[c]pyridine-1-carboxamide] | 1000 to 10000 nM | < 100 nM
28 | Cc1cnc(-c2n[nH]c3ccc(NC(=O)c4ncc(C#N)c(C)c4C)cc23)o1 [Example 207, 5-Cyano-3,4-dimethyl-N-(3-(5-methyloxazol-2-yl)-1H-indazol-5-yl)picolinamide] | < 100 nM | < 100 nM
29 | COc1cc(C#N)cc(C)c1C(=O)Nc1ccc2[nH]nc(-c3cnco3)c2c1 [Example 208, 4-Cyano-2-methoxy-6-methyl-N-(3-(oxazol-5-yl)-1H-indazol-5-yl)benzamide] | < 100 nM | < 100 nM
30 | N#Cc1cccc(C(=O)Nc2ccc3[nH]nc(-c4cnco4)c3c2)c1Cl [Example 209, 2-chloro-3-cyano-N-(3-(oxazol-5-yl)-1H-indazol-5-yl)benzamide] | < 100 nM | < 100 nM
31 | Cc1nc(C(=O)Nc2ccc3[nH]nc(-c4cnoc4)c3c2)c(C)c(C)c1C#N [Example 210, 5-Cyano-N-(3-(isoxazol-4-yl)-1H-indazol-5-yl)-3,4,6-trimethylpicolinamide] | < 100 nM | < 100 nM
32 | COc1c(C#N)cnc(C(=O)Nc2ccc3[nH]nc(-c4cnco4)c3c2)c1C [Example 211, 5-Cyano-4-methoxy-3-methyl-N-(3-(oxazol-5-yl)-1H-indazol-5-yl)picolinamide] | < 100 nM | < 100 nM
33 | N#Cc1cccc(C(=O)Nc2ccc3[nH]nc(-c4cnco4)c3c2)c1OC(F)(F)F [Example 212, 3-Cyano-N-(3-(oxazol-5-yl)-1H-indazol-5-yl)-2-(trifluoromethoxy)benzamide] | < 100 nM | < 100 nM
34 | Cc1c(C(=O)Nc2ccc3[nH]nc(-c4cnco4)c3c2)cc(C#N)c(=O)n1C [Example 213, 5-Cyano-1,2-dimethyl-N-(3-(oxazol-5-yl)-1H-indazol-5-yl)-6-oxo-1,6-dihydropyridine-3-carboxamide] | < 100 nM | < 100 nM
35 | C=C(C)c1c(C#N)cccc1C(=O)Nc1ccc2[nH]nc(-c3cnco3)c2c1 [Example 214, 3-Cyano-N-(3-(oxazol-5-yl)-1H-indazol-5-yl)-2-(prop-1-en-2-yl)benzamide] | < 100 nM | < 100 nM
36 | Cc1c(C#N)cnc(C(=O)Nc2ccc3[nH]nc(-c4cnn(C5CCN(C)CC5)c4)c3c2)c1C [Example 215, 5-Cyano-3,4-dimethyl-N-(3-(1-(1-methylpiperidin-4-yl)-1H-pyrazol-4-yl)-1H-indazol-5-yl)picolinamide] | < 100 nM | < 100 nM

Reference: patent US11427558B1, “Indazoles and azaindazoles as LRRK2 inhibitors” (ESCAPE Bio, Inc., priority 2019, dated 2022)
